Common to all, as to details: at 10 µM
The subject of assay [1] is Epidermal growth factor receptor (Homo sapiens), P00533 [T790M].
Assay [2] deals with TRAF2 and NCK-interacting protein kinase (Homo sapiens) (UniProt Q9UKE5). Nature of the assay: Selectivity interaction (KinomeScan (DiscoverX)) EUB0000092b TNIK.
For assay [3], the system named is T1, Receptor-type tyrosine-protein kinase FLT3 (Homo sapiens), P36888 [D835H].
T1 sequence (whole entry): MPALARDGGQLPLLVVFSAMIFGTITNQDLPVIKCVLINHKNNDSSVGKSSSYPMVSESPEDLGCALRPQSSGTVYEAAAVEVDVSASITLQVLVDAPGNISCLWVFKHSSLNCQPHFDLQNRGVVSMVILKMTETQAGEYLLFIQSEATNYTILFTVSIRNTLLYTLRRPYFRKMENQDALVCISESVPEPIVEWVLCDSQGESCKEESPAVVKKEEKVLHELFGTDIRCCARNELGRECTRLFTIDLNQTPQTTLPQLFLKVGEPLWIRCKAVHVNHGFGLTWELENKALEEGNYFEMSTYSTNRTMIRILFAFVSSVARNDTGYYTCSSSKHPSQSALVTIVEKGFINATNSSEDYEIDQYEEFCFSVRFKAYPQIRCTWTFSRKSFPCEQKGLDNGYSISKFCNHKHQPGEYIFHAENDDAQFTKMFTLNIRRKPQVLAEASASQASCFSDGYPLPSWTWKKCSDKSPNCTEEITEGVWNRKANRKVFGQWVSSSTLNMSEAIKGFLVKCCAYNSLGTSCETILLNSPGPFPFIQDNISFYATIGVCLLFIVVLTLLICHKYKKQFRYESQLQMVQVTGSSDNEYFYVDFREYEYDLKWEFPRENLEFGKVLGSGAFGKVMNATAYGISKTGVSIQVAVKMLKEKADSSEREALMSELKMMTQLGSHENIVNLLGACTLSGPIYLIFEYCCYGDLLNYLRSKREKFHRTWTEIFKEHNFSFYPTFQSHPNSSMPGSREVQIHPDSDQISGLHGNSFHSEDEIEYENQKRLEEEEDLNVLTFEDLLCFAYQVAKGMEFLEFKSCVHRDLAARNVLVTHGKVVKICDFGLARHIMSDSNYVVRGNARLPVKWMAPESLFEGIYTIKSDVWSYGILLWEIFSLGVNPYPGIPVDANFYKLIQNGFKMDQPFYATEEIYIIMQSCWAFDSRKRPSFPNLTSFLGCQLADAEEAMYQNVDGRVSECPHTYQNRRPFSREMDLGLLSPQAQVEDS
Briefly: (§1) Selectivity interaction (KinomeScan (DiscoverX)) EUB0000607a FLT3.

Assay [4] relates to T2, Receptor-type tyrosine-protein kinase FLT3 (Homo sapiens), P36888 [N841I].
T2 sequence (whole entry): T1 sequence (whole entry) with H835D, N841I
The description is as §1.

Assay [5] relates to T3, Receptor-type tyrosine-protein kinase FLT3 (Homo sapiens), P36888 [K663Q].
T3 sequence (whole entry): T1 sequence (whole entry) with K663Q, H835D
Described as §1.

Numbering of substitutions follows the chain as printed.

Chain of TRAF2 and NCK-interacting protein kinase (Homo sapiens) (Q9UKE5 whole entry, looked up): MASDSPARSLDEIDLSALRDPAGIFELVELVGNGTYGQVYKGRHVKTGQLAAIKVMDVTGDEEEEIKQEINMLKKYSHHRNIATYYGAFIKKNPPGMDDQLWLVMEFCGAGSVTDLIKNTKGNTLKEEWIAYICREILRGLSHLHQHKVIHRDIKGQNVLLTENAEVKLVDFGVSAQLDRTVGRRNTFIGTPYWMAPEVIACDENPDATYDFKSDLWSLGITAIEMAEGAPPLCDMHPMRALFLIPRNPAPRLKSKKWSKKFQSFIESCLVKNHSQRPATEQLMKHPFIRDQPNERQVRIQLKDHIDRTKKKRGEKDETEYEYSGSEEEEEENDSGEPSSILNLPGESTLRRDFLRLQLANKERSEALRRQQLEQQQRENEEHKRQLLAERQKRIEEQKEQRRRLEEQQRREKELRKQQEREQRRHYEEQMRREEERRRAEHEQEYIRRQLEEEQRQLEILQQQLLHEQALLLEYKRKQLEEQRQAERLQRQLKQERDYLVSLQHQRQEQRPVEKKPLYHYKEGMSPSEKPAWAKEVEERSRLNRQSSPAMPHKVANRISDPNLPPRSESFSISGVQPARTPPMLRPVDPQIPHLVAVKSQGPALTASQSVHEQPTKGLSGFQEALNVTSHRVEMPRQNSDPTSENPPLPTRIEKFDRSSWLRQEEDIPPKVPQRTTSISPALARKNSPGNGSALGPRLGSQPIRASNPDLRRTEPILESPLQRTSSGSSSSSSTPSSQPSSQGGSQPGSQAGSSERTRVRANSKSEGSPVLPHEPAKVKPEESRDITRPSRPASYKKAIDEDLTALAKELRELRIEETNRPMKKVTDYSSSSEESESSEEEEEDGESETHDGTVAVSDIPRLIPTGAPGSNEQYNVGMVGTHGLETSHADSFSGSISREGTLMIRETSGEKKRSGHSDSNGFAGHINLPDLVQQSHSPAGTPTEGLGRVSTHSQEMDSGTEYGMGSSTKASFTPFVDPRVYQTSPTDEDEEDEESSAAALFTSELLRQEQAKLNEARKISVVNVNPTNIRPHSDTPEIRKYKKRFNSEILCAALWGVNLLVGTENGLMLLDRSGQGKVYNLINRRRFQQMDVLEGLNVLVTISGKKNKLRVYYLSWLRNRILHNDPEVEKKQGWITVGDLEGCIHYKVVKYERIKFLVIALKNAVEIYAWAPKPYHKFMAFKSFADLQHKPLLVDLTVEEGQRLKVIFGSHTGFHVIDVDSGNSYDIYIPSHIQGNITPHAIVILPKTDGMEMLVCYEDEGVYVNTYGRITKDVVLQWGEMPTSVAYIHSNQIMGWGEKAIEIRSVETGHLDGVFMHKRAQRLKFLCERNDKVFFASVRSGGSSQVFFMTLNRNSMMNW
Chain of Epidermal growth factor receptor (Homo sapiens), P00533 [T790M] (P00533 whole entry T790M): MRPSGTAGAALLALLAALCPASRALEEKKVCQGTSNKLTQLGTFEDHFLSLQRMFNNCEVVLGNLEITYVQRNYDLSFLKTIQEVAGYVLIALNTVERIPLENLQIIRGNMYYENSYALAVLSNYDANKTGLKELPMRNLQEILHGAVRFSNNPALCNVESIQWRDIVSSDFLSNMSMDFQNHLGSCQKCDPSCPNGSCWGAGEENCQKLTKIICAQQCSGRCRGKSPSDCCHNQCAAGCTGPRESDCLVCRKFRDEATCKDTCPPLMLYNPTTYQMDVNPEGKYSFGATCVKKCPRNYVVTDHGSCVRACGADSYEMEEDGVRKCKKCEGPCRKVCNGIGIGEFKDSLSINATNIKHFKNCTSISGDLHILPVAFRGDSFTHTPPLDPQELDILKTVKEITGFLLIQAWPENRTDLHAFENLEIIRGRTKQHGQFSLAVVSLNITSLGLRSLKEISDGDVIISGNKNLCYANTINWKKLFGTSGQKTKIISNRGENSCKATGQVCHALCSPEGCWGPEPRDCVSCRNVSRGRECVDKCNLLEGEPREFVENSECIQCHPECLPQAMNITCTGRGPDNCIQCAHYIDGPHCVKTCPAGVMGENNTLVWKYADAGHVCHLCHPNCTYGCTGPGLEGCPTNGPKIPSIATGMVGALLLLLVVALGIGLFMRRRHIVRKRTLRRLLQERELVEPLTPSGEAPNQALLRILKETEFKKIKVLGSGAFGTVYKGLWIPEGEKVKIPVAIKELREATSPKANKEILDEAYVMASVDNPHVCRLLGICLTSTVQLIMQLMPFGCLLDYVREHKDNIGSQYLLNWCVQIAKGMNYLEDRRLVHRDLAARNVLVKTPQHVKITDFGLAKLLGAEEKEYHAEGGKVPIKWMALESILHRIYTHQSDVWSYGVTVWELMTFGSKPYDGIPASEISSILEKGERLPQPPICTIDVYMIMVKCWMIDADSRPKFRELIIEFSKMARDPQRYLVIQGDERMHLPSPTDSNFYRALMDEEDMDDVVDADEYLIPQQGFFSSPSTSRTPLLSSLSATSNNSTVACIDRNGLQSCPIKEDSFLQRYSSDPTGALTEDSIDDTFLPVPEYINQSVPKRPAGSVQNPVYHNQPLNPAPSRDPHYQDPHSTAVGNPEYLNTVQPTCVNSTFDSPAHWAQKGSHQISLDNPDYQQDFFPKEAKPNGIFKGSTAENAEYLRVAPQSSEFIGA

Turning to `Cc1cc([C@@H](C)Nc2ccccc2C(=O)O)c2nc(N3CCOCC3)cc(=O)n2c1` [AZD-6482], in assay [1], the % of control came out at 100%.

`CCC(=O)N1CCN(c2ccc(-n3c(=O)ccc4cnc5ccc(-c6cnc7ccccc7c6)cc5c43)cc2C(F)(F)F)CC1` showed a % of control in assay [2] of 39%.

With `CNC(=O)Nc1ccc(-c2nc(N3CC4CCC(C3)O4)c3cnn(C4CCC5(CC4)OCCO5)c3n2)cc1`, the % of control in assay [3] came out at 82%; in assay [4] it was 89%; in assay [5], 69%.

Source of the values: ChEMBL document CHEMBL5465560, “Selectivity Literature for EUbOPEN Chemogenomic Library” (2024).
